Test [1] deals with potassium-depolarized rat aorta. To be noted: in vitro; cited from earlier work.
Test [2] has as its system K+-depolarized isolated guinea pig ileal segment. The test can be described thus: Cardiovascular calcium antagonism, guinea pig ileum (in vitro). The test is classed as cell-based. To be noted: inhibition of contractile response to added calcium (20 µg/ml of CaCl), Ca-free physiological salt solution, 37° C, reference agents; for IC100: Cavia porcellus, read-out: ED100. An excerpt: Cardiovascular Calcium Antagonism, Guinea Pig Ileum (in vitro):

A further test concerns β-adrenergic. To be noted: L-form versus D-enantiomer; cited from earlier work.

As to `CCOC(=O)C1=C(COCCN)NC(C)=C(C(=O)OC)C1c1ccccc1Cl` (single isomer, unassigned; isomer 3) [(-) isomer, 3-ethyl 5-methyl (-)-2-[(2-aminoethoxy)methyl]-4-(2-chlorophenyl)-1,4-dihydro-6-methyl-3,5-pyridine-dicarboxylate], the “activity relative to the racemic mixture in antagonizing calcium-induced constriction” value in test [1] is on record as “twice as active as the racemic mixture”. Consider `CC(C)[N+]1(C)[C@@H]2CC[C@H]1CC(OC(=O)C(CO)c1ccccc1)C2.[Br-]` (stereo partly shown) [ipratropium bromide], for which, in test [2], the ED100 was >2 µg/mL.

Turning to `CC(COc1ccccc1)NC(C)C(O)c1ccc(O)cc1` (stereo not shown) [isoxuprine], in test [2], the ED100 amounted to 4 µg/mL. Still for that read-out and setting: in the case of `C(=C\c1ccccc1)/CN1CCN(C(c2ccccc2)c2ccccc2)CC1` [cinnazrizine] it was 1 µg/mL. `Fc1ccc(C(c2ccc(F)cc2)N2CCN(C/C=C/c3ccccc3)CC2)cc1` [flunarizine]: in test [2], the IC100 was 0.1 µg/mL.

On to `COc1ccc(Cc2nccc3cc(OC)c(OC)cc23)cc1OC` [papaverine], for which the IC100 in test [2] stood at 4 µg/mL. Same read-out and setting: in the case of `CN(C)CCOC(c1ccccc1)c1ccccc1` [diphenhydramine] it was 1 µg/mL. With `CC(CN1c2ccccc2Sc2ccccc21)N(C)C` (stereo not shown) [promethazine], the IC100 in test [2] came out at 0.25 µg/mL. Regarding `CC(C)NC[C@H](O)COc1cccc2ccccc12`, the “times more potent than the D-enantiomer” value in the test on β-adrenergic was 100 times. Take `CN1CCC(=C2c3ccccc3C=Cc3ccccc32)CC1` [cyproheptadine]: the IC100 in test [2] turned out to be 0.025 µg/mL.

These data come from patent EP1614420A2, “Treatment of hypertension, angina and other disorders using (-) amlodipine” (Sepracor Inc., priority 1992, dated 1993).
